The subject of assay [1] is poly A–poly U (poly rA–poly rU) (RNA, polymer) A/U. Briefly: UV thermal melting at 260 nm. The note with it: Na+ (sodium cacodylate, I = 0.05 M); sodium cacodylate pH 7.0; r = [compound]/[polynucleotide] = 0.3; per base.
The subject of assay [2] is poly dA–poly dT (DNA, polymer) A/T. Briefly: UV thermal melting at 260 nm. The note with it: Na+ (sodium cacodylate, I = 0.05 M); sodium cacodylate pH 7.0; r = [compound]/[polynucleotide] = 0.3; per base.
The subject of assay [3] is poly dAdT–poly dAdT (DNA, polymer) AT. Nature of the assay: UV thermal melting at 260 nm. To be noted: Na+ (sodium cacodylate, I = 0.05 M); sodium cacodylate pH 7.0; r = [compound]/[polynucleotide] = 0.3; per base.
For assay [4], the system named is poly A–poly U (poly rA–poly rU) (RNA, polymer) A/U. Nature of the assay: UV–vis titration, Scatchard fit. To be noted: Na+ (sodium cacodylate, I = 0.05 M); sodium cacodylate pH 7.0, 25 °C; polynucleotide as nucleobases/phosphates; per base.
Assay [5] relates to poly dA–poly dT (DNA, polymer) A/T. Nature of the assay: UV–vis titration, Scatchard fit. The note with it: Na+ (sodium cacodylate, I = 0.05 M); sodium cacodylate pH 7.0, 25 °C; polynucleotide as nucleobases/phosphates; per base.
For assay [6], the system named is poly dAdT–poly dAdT (DNA, polymer) AT. Briefly: UV–vis titration, Scatchard fit. To be noted: Na+ (sodium cacodylate, I = 0.05 M); sodium cacodylate pH 7.0, 25 °C; polynucleotide as nucleobases/phosphates; per base.
For assay [7], the system named is poly dG–poly dC (DNA, polymer) G/C. Nature of the assay: UV–vis titration, Scatchard fit. To be noted: Na+ (sodium cacodylate, I = 0.05 M); sodium cacodylate pH 7.0, 25 °C; polynucleotide as nucleobases/phosphates; per base.

In the case of `C[N+](C)(C)CCCOc1ccccc1C(=O)C1=CNc2ccccc2N=CC(C(=O)c2ccccc2OCCCn2cnc3c(N)ncnc32)=CNc2ccccc2N=C1`, the ΔTm in assay [1] is 0 °C; in assay [2], 0 °C; in assay [3] it was less than 2 °C. Moreover, the “log Ks” value is 5.8 in assay [4], 5.9 in assay [5], 5.5 in assay [6] and 5.7 in assay [7].
On to `Nc1ncnc2c1ncn2CCCCCCOc1ccccc1C(=O)C1=CNc2ccccc2N=CC(C(=O)c2ccccc2OCCCCCC[n+]2ccccc2)=CNc2ccccc2N=C1`, for which the ΔTm in assay [1], in assay [2] and in assay [3] was 0 °C in each case. Moreover, the “log Ks” value in assay [4] was determined as 5.7; in assay [5], 5.0; in assay [7], 5.6.
Turning to `Nc1ncnc2c1ncn2CCCOc1ccccc1C(=O)C1=CNc2ccccc2N=CC(C(=O)c2ccccc2OCCC[n+]2ccccc2)=CNc2ccccc2N=C1`, the results for the ΔTm in assay [1], in assay [2] and in assay [3] were 0.5 °C, 0.7 °C and less than 3 °C, respectively. In addition, the “log Ks” value was found to be 6.0 in assay [4], 6.2 in assay [5], 6.1 in assay [6] and 5.5 in assay [7].
For the compound `Nc1ncnc2c1ncn2CCCCCOc1ccccc1C(=O)C1=CNc2ccccc2N=CC(C(=O)c2ccccc2OCCCCC[n+]2ccccc2)=CNc2ccccc2N=C1`, the figures for the “log Ks” value in assay [4], in assay [5] and in assay [7] were 6.6, 5.4 and 5.8, respectively.
As for `CCCCCCOc1ccccc1C(=O)C1=CNc2ccccc2N=CC(C(=O)c2ccccc2OCCC[n+]2ccccc2)=CNc2ccccc2N=C1`, the ΔTm in assay [1], in assay [2] and in assay [3] was 0 °C in each case.

As a reminder, the ΔTm is the change in melting temperature against a reference sample.

Values taken from paper PMC4168902 (2014).
